Common to all, as to assay type: cell-based, human
Assay [1] relates to A549 cells (KRAS G12S mutant). Nature of the assay: Cell proliferation inhibition experiment, 3D spheroid, CellTiter-Glo, A549. Conditions: Homo sapiens, A549, 120 h, A549 (KRAS G12S mutant) 3D spheroid, 5 days with compound, CellTiter-Glo; read-out: A549 IC50. In a few lines: (§1)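 NCI-H358 (800 cells/well, RPMI-1640) and A549 (400 cells/well, F-12K) grown overnight as 3D spheroids in 2% FBS medium, then exposed 5 days to 3.16-fold compound dilutions at 0.1% DMSO. Viability measured by CellTiter-Glo luminescence; inhibition relative to DMSO and medium blank, IC50 from four-parameter fit.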
On the technique in general: Cellular ATP, detected with luciferase, serves as a proxy for viable cell number.

For assay [2], the system named is KRAS G12C mutant NCI-H358 cells. Description: Cell proliferation inhibition experiment, 3D spheroid, CellTiter-Glo, NCI-H358. Conditions: Homo sapiens, NCI-H358, 120 h, NCI-H358 (KRAS G12C mutant) 3D spheroid, 5 days with compound, CellTiter-Glo; read-out: H358 IC50. The procedure, abridged: as §1
Assay [3] has as its system KRAS G12C mutant MIA PaCa-2 cells. Description: Cell proliferation inhibition experiment, 3D spheroid, CellTiter-Glo, MIA PaCa-2. The conditions noted are these: Homo sapiens, MIA PaCa-2, 120 h, 3D cell model in 384-well spheroid plate, 5 days, CellTiter-Glo; read-out: MIA-PaCa2 IC50. In a few lines:
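200 MIA PaCa-2 cells/well grown overnight as 3D spheroids, then exposed to 3.16-fold compound dilutions (0.1% DMSO final) for 5 days. Viability read by CellTiter-Glo luminescence; inhibition calculated against DMSO and medium-only controls, and IC50 fitted by four-parameter model.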

Some results are limits rather than exact numbers.

The term IC50 denotes the concentration that inhibits the measured activity by half. Turning to `C=CC(=O)N1CCN2C(=O)c3c(N4CC(O)CC4(C)C)nc(-c4ccccc4Cl)c(F)c3OC[C@H]2C1` (stereo partly drawn) [Z414-1, (6aR)-8-acryloyl-3-(2-chlorophenyl)-4-fluoro-1-(4-hydroxy-2,2-dimethylpyrrolidin-1-yl)-6,6a,7,8,9,10-hexahydro-12H-pyrazino[2,1-c]pyrido[3,4-f][1,4]oxazepin-12-one], the half-maximal inhibitory concentration (IC50) is 8890 nM in assay [1], 19 nM in assay [2] and 126 nM in assay [3].
On to `C=CC(=O)N1CCN2C(=O)c3c(N4CCN(C)C[C@@H]4C)nc(-c4c(F)cccc4OC)c(F)c3OC[C@H]2C1` [Z451, (6aR)-8-acryloyl-1-((S)-2,4-dimethylpiperazin-1-yl)-4-fluoro-3-(2-fluoro-6-methoxyphenyl)-6,6 a,7,8,9,10-hexahydro-12H-pyrazino[2,1-c]pyrido[3,4-f][1,4]oxazepin-12 (6 aH)-one], for which the IC50 worked out at 5720 nM in assay [1], 158 nM in assay [2] and 363 nM in assay [3].
Take `C=CC(=O)N1CCN2C(=O)c3c(N4CCN(C)C[C@@H]4C)nc(-c4c(O)cccc4Cl)c(Cl)c3OC[C@H]2C1` [Z452, (6aR)-8-acryloyl-4-chloro-3-(2-chloro-6-hydroxyphenyl)-1-((S)-2,4-dimethylpiperazin-1-yl)-6,6a,7,8,9,10-hexahydro-12H-pyrazino[2,1-c]pyrido[3,4-f][1,4]oxazepin-12-one]: the IC50 in assay [1] was 8990 nM; in assay [2] it was 3.9 nM; in assay [3], 11.2 nM.
On the same counts, the results for `C=CC(=O)N1CCN2C(=O)c3c(N4C[C@@H](N(C)C)CC4(C)C)nc(-c4ccccc4F)c(Cl)c3OC[C@H]2C1` [Z453-1, (R)-8-acryloyl-4-chloro-1-((S)-4-(dimethylamino)-2,2-dimethylpyrrolidin-1-yl)-3-(2-fluorophenyl)-6,6a,7,8,9,10-hexahydro-12H-pyrazino[2,1-c]pyrido[3,4-f][1,4]oxazepin-12-one] are 3340 nM, 6 nM and 14 nM.
For the compound `C=CC(=O)N1CCN2C(=O)c3c(N4CC(N5CCN(C)CC5)CC4(C)C)nc(-c4ccccc4F)c(Cl)c3OC[C@H]2C1` (stereo partly drawn) [Z454, (6aR)-8-acryloyl-4-chloro-1-(2,2-dimethyl-4-(4-methylpiperazin-1-yl)pyrrolidin-1-yl)-3-(2-fluorophenyl)-6,6a,7,8,9,10-hexahydro-12H-pyrazino[2,1-c]pyrido[3,4-f][1,4]oxazepin-12-one], the half-inhibitory concentration (IC50) worked out at 2130 nM in assay [1], 2 nM in assay [2] and 4.7 nM in assay [3].
Take `C=CC(=O)N1CCN2C(=O)c3c(N4CCN(C)C[C@@H]4C)nc(-c4c(F)cccc4C(F)F)c(Cl)c3OC[C@H]2C1` [Z456, (6aR)-8-acryloyl-4-chloro-3-(2-(difluoromethyl)-6-fluorophenyl)-1-((S)-2,4-dimethylpiperazin-1-yl)-6,6a,7,8,9,10-hexahydro-12H-pyrazino[2,1-c]pyrido[3,4-f][1,4]oxazepin-12-one]: the half-inhibitory concentration (IC50) in assay [1] came to 9730 nM; in assay [2] it was 9.4 nM; in assay [3], 22.8 nM.
On the same counts, the results for `C=CC(=O)N1CCN2C(=O)c3c(NC(C)(C)C)nc(-c4ccccc4F)c(Cl)c3OC[C@H]2C1` [Z457, (R)-8-acryloyl-1-(tert-butylamino)-4-chloro-3-(2-fluorophenyl)-6,6a,7,8,9,10-hexahydro-12H-pyrazino[2,1-c]pyrido[3,4-f][1,4]oxazepin-12-one] are 2950 nM, 62.7 nM and 522 nM.
On the same counts, the results for `C=CC(=O)N1CCN2C(=O)c3c(N4CC(C(=O)O)CC4(C)C)nc(-c4c(O)cccc4F)c(Cl)c3OC[C@H]2C1` (stereo partly drawn) [Z458, 1-((6aR)-8-acryloyl-4-chloro-3-(2-fluoro-6-hydroxyphenyl)-12-oxo-6,6a,7,8,9,10-hexahydro-12H-pyrazino[2,1-c]pyrido[3,4-f][1,4]oxazepin-1-yl)-5,5-dimethylpyrrolidine-3-carboxylic acid] are greater than 30000 nM, 305 nM and greater than 1000 nM.
On to `C=CC(=O)N1CCN2C(=O)c3c(N4CCC[C@@]4(C)C(=O)NC)nc(-c4c(O)cccc4F)c(Cl)c3OC[C@H]2C1` [Z462, (2S)-1-((6aR)-8-acryloyl-4-chloro-3-(2-fluoro-6-hydroxyphenyl)-12-oxo-6,6a,7,8,9,10-hexahydro-12H-pyrazino[2,1-c]pyrido[3,4-f][1,4]oxazepin-1-yl)-N,2-dimethylpyrrolidine-2-carboxamide], for which the 50% inhibitory concentration (IC50) worked out at 29100 nM in assay [1], 12.4 nM in assay [2] and 16 nM in assay [3].
The corresponding values for `C=CC(=O)N1CCN2C(=O)c3c(N4C[C@@H](N5CCN(C)CC5)C[C@@H]4C)nc(-c4ccccc4F)c(Cl)c3OC[C@H]2C1` [Z470-2] are 9610 nM, 3 nM and 4 nM.
With `C=CC(=O)N1CCN2C(=O)c3c(N4CC(N5CCN(C)CC5)CC4(C)C)nc(-c4ccccc4F)c(F)c3OC[C@H]2C1` (stereo partly drawn) [Z474, (6aR)-8-acryloyl-1-(2,2-dimethyl-4-(4-methylpiperazin-1-yl)pyrrolidin-1-yl)-4-fluoro-3-(2-fluorophenyl)-6,6a,7,8,9,10-hexahydro-12H-pyrazino[2,1-c]pyrido[3,4-f][1,4]oxazepin-12-one], the IC50 worked out at 6700 nM in assay [1], 9 nM in assay [2] and 17 nM in assay [3].
With `C=CC(=O)N1CCN2C(=O)c3c(N4C[C@@H](N(C)C)CC4(C)C)nc(-c4c(F)ccc(F)c4O)c(Cl)c3OC[C@H]2C1` [Z475-1, (6aR)-8-acryloyl-4-chloro-3-(3,6-difluoro-2-hydroxyphenyl)-1-((S)-4-(dimethylamino)-2,2-dimethylpyrrolidin-1-yl)-6,6a,7,8,9,10-hexahydro-12H-pyrazino[2,1-c]pyrido[3,4-f][1,4]oxazepin-12-one], the results for the IC50 in assay [1], in assay [2] and in assay [3] were 5170 nM, 2 nM and 5 nM, respectively.
As for `C=CC(=O)N1CCN2C(=O)c3c(N4C[C@@H](N5CC(F)C5)CC4(C)C)nc(-c4ccccc4F)c(Cl)c3OC[C@H]2C1` [Z480-1, (R)-8-acryloyl-4-chloro-1-((S)-4-(3-fluoroazetidin-1-yl)-2,2-dimethylpyrrolidin-1-yl)-3-(2-fluorophenyl)-6,6a,7,8,9,10-hexahydro-12H-pyrazino[2,1-c]pyrido[3,4-f][1,4]oxazepin-12-one], the values for the IC50 in assay [1], in assay [2] and in assay [3] were 3980 nM, 3.4 nM and 10 nM, respectively.
Consider `C=CC(=O)N1CCN2C(=O)c3c(N4CC[C@H](N(C)C)C4(C)C)nc(-c4ccccc4F)c(Cl)c3OC[C@H]2C1` [Z502-2, (6aR)-8-acryloyl-4-chloro-1-(3-(dimethylamino)-2,2-dimethylpyrrolidin-1-yl)-3-(2-fluorophenyl)-6,6a,7,8,9,10-hexahydro-12H-pyrazino[2,1-c]pyrido[3,4-f][1,4]oxazepin-12(6aH)-one], for which the values for the IC50 in assay [1], in assay [2] and in assay [3] were 6140 nM, 11 nM and 24.1 nM, respectively.
On the same counts, the results for `C=CC(=O)N1CCN2C(=O)c3c(N4CCC(OC)C4(C)C)nc(-c4c(N)cccc4F)c(Cl)c3OC[C@H]2C1` (stereo partly drawn) [Z506, (6aR)-8-acryloyl-3-(2-amino-6-fluorophenyl)-4-chloro-1-(3-methoxy-2,2-dimethylpyrrolidin-1-yl)-6,6a,7,8,9,10-hexahydro-12H-pyrazino[2,1-c]pyrido[3,4-f][1,4]oxazepin-12-one] are 9190 nM, 0.8 nM and 2.2 nM.
